# Measurements as given in patent US5075287A, “Muramyl peptide derivatives and immunoregulating compositions containing them” (priority 1989, dated 1991).
# Like-named read-outs stand apart in the source and are kept apart here.
# Legend:
# [1] = system: hepatitis B virus surface antigen (HBs); test: Hepatitis-vaccine enhancing activity (adjuvant activity): anti-HBs IgG in mouse serum by ELISA; assay type: in vivo, female CDF1 mice; details: Experiment 2, 2000-fold dilution
# Description: A compound of the present invention was dissolved in lipidmicrosphere (1 mg/ml). On the other hand, a solution of hepatitis B virus surface antigen (HBs) in physiological saline was prepared (50 μg/ml). The above solutions in equal amounts were mixed to prepare a test solution. A control solution was prepared by the exclusion of the compound of the present invention from said test solution. A mixture of a suspension of aluminium hydroxide gel in physiological saline (1 mg/ml) and said hepatitis vaccine preparation in equal amounts was prepared as another control solution. The test solution (0.2 ml) was intraperitoneally administered to each mouse in one group consisting of seven female CDF1 mice.
# Blood samples were collected from the fundus ocluli vein of each mouse every week after the administration and then centrifuged to obtain serums. Three weeks after the administration, 0.2 ml of the test liquid was intraperitoneally administered again to each mouse for secondary stimulation. Then blood collecting was conducted every week to obtain serums after the application of the secondary stimulation, in the same manner as that described above.
# The amount of the IgG antibodies against the hepatitis B virus surface antigens (HBs) in the serums thus obtained was determined with an ELISA method.
# [2] = system: influenza HA vaccine (B/Nagasaki/1/87 strain); assay type: in vivo, female CDF1 mice; details: Experiment 2, 8000-fold dilution
# [3] = 4 W (after secondary stimulation at 3 weeks)
# [4] = 5 W (after secondary stimulation at 3 weeks)
Compound,Anti-HBs IgG antibody level in serum (ELISA absorbance at 415 nm) ([1]; 1 W),Anti-HBs IgG antibody level in serum (ELISA absorbance at 415 nm) ([1]; 2 W),Anti-HBs IgG antibody level in serum (ELISA absorbance at 415 nm) ([1]; 3 W),"Anti-HBs IgG antibody level in serum (ELISA absorbance at 415 nm) [1, 3]","Anti-HBs IgG antibody level in serum (ELISA absorbance at 415 nm) [1, 4]",Anti HA serum antigen value (average value ± S.D.) ([2]; 1 W),Anti HA serum antigen value (average value ± S.D.) ([2]; 2 W),Anti HA serum antigen value (average value ± S.D.) ([2]; 3 W),"Anti HA serum antigen value (average value ± S.D.) [2, 3]","Anti HA serum antigen value (average value ± S.D.) [2, 4]"
"CCCCCCCCCCCCCCCCCC(=O)OC[C@H]1O[C@@H](SC(=O)C[C@@H](CCCCCCCCCCC)OC(=O)CCCCCCCCCCCCCCC)[C@H](NC(C)=O)[C@@H](O[C@H](C)C(=O)N[C@@H](C)C(=O)N[C@H](CCC(=O)OC)C(N)=O)[C@@H]1O [Example 20, N-[2-0-{2-Acetamido-2,3-dideoxy-6-0-octadecanoyl-1-S-((3R)-3-hexadecanoyloxytetradecanoyl)-1-thio-β-D-glucopyranos-3-yl}-D-lactoyl]-L-alanYl-D-isoglutamine methylester]",0.002 ± 0.001 O.D 415 nm,0.044 ± 0.005 O.D 415 nm,0.056 ± 0.003 O.D 415 nm,0.814 ± 0.018 O.D 415 nm,0.708 ± 0.002 O.D 415 nm,0.001 ± 0.001 O.D 415 nm,0.071 ± 0.001 O.D 415 nm,0.110 ± 0.008 O.D 415 nm,0.840 ± 0.011 O.D 415 nm,0.857 ± 0.023 O.D 415 nm
"CCCCCCCCCCCCCCCCCC(=O)O[C@H](CCCCCCCCCCC)CC(=O)O[C@H]1O[C@H](CO)[C@@H](O)[C@H](O[C@H](C)C(=O)N[C@@H](C)C(=O)N[C@H](CCC(=O)OC)C(N)=O)[C@H]1NC(C)=O [Example 21, N-[2-0-{2-Acetamido-2,3-dideoxy-1-0-((3R)-3-octadecanoyloxytetradecanoyl)-α-D-glucopyranos-3-yl}-D-lactoyl]-L-alanyl-D-isoglutamine methylester]",0.006 ± 0.004 O.D 415 nm,0.038 ± 0.000 O.D 415 nm,0.058 ± 0.007 O.D 415 nm,0.517 ± 0.006 O.D 415 nm,0.498 ± 0.011 O.D 415 nm,0 O.D 415 nm,0.060 ± 0.001 O.D 415 nm,0.097 ± 0.002 O.D 415 nm,0.748 ± 0.003 O.D 415 nm,0.758 ± 0.012 O.D 415 nm
CCCCCCCCCCCCCCCCCC(=O)OC[C@H]1O[C@H](OC(=O)C[C@@H](CCCCCCCCCCC)OC(=O)CCCCCCCCCCCCCCCCC)[C@H](NC(C)=O)[C@@H](O[C@H](C)C(=O)N[C@@H](C)C(=O)N[C@H](CCC(=O)OC)C(N)=O)[C@@H]1O [Example 22],0.005 ± 0.004 O.D 415 nm,0.036 ± 0.007 O.D 415 nm,0.053 ± 0.001 O.D 415 nm,0.294 ± 0.006 O.D 415 nm,0.254 ± 0.002 O.D 415 nm,0.001 ± 0.004 O.D 415 nm,0.065 ± 0.001 O.D 415 nm,0.100 ± 0.003 O.D 415 nm,0.411 ± 0.009 O.D 415 nm,0.492 ± 0.002 O.D 415 nm
"CCCCCCCCCCCCCCCCCC(=O)O[C@H](CCCCCCCCCCC)CC(=O)S[C@@H]1O[C@H](CO)[C@@H](O)[C@H](O[C@H](C)C(=O)N[C@@H](C)C(=O)N[C@H](CCC(=O)OC)C(N)=O)[C@H]1NC(C)=O [Example 23, N-[2-0-{2-Acetamido-2,3-dideoxy-1-S-((3R)-3-octadecanoyloxytetradecanoyl)-1-thio-β-D-glucopyranos-3-yl}-D-lactoyl]-L-alanyl-D-isoglutamine methylester]",0.004 ± 0.001 O.D 415 nm,0.051 ± 0.003 O.D 415 nm,0.092 ± 0.004 O.D 415 nm,0.639 ± 0.003 O.D 415 nm,0.626 ± 0.008 O.D 415 nm,0.008 ± 0.005 O.D 415 nm,0.096 ± 0.001 O.D 415 nm,0.183 ± 0.004 O.D 415 nm,0.949 ± 0.006 O.D 415 nm,1.030 ± 0.003 O.D 415 nm
"CCCCCCCCCCCCCCCCCC(=O)OC[C@H]1O[C@@H](SC(=O)C[C@@H](CCCCCCCCCCC)OC(=O)CCCCCCCCCCCCCCCCC)[C@H](NC(C)=O)[C@@H](O[C@H](C)C(=O)N[C@@H](C)C(=O)N[C@H](CCC(=O)O)C(N)=O)[C@@H]1O [Example 24, N-[2-0-{2-Acetamido-2,3-dideoxy-6-0-octadecanoyl-1-S-((3R)-3-octadecanoyloxytetradecanoyl)-1-thio-β-D-glucopyranos-3-yl}-D-lactoyl]-L-alanyl-D-isoglutamine]",0.007 ± 0.001 O.D 415 nm,0.034 ± 0.001 O.D 415 nm,0.050 ± 0.000 O.D 415 nm,0.579 ± 0.007 O.D 415 nm,0.513 ± 0.011 O.D 415 nm,0.006 ± 0.001 O.D 415 nm,0.085 ± 0.005 O.D 415 nm,0.113 ± 0.007 O.D 415 nm,0.771 ± 0.003 O.D 415 nm,0.791 ± 0.004 O.D 415 nm
"CCCCCCCCCCCCCC(=O)O[C@H](CCCCCCCCCCC)CC(=O)O[C@H]1O[C@H](CO)[C@@H](O)[C@H](O[C@H](C)C(=O)N[C@@H](C)C(=O)N[C@H](CCC(=O)OC)C(N)=O)[C@H]1NC(C)=O [Example 25, N-[2-0-{2-Acetamido-2,3-dideoxy-1-0-((3R)-3-tetradecanoyloxytetradecanoyl}-α-D-glucopyranos-3-yl}-D-lactoyl]-L-alanyl-D-isoglutamine methylester]",0.004 ± 0.002 O.D 415 nm,0.021 ± 0.001 O.D 415 nm,0.031 ± 0.004 O.D 415 nm,0.402 ± 0.011 O.D 415 nm,0.434 ± 0.021 O.D 415 nm,0.009 ± 0.001 O.D 415 nm,0.109 ± 0.002 O.D 415 nm,0.149 ± 0.004 O.D 415 nm,0.623 ± 0.019 O.D 415 nm,0.719 ± 0.021 O.D 415 nm
"CCCCCCCCCCCCCCCCCC(=O)OC[C@H]1O[C@H](OC(=O)C[C@@H](CCCCCCCCCCC)OC(=O)CCCCCCCCCCCCC)[C@H](NC(C)=O)[C@@H](O[C@H](C)C(=O)N[C@@H](C)C(=O)N[C@H](CCC(=O)OC)C(N)=O)[C@@H]1O [Example 26, N-[2-0-{2-Acetamido-2,3-dideoxy-6-0-octadecanoyl-1-0-((3R)-3-tetradecanoyloxytetradecanoyl)-α-D-glucopyranos-3-yl}-D-lactoyl]-L-alanyl-D-isogluatmine methylester]",0.001 ± 0.006 O.D 415 nm,0.015 ± 0.006 O.D 415 nm,0.032 ± 0.008 O.D 415 nm,0.192 ± 0.002 O.D 415 nm,0.163 ± 0.004 O.D 415 nm,0.004 ± 0.003 O.D 415 nm,0.038 ± 0.001 O.D 415 nm,0.054 ± 0.001 O.D 415 nm,0.208 ± 0.001 O.D 415 nm,0.206 ± 0.002 O.D 415 nm
